Values joined by “and” are separate entries in the source; they are usually repeats but may differ in a detail not shown here. Identical values can stand only once. Toxic doses and inconclusive results are not listed.
Test system: P388 leukemia ip, CD2F1 mice, survival T/C
Assay: NCI In Vivo Anticancer Drug Screen. Data for tumor model P388 Leukemia (intraperitoneal) in CD2F1 (CDF1) mice
Settings: endpoint: median survival time, higher = longer survival
Outline: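 Mice carrying the transplanted tumor received test compound or vehicle. Survival was recorded in each group, and the value is the treated-group measurement divided by that of the vehicle-treated control group.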

[1] = dose: 50.0 mg/kg/injection, schedule: Q01DX005 (ip), vehicle: saline with Tween-80
[2] = dose: 100.0 mg/kg/injection, schedule: Q01DX005 (ip), vehicle: saline with Tween-80
[3] = dose: 200.0 mg/kg/injection, schedule: Q01DX005 (ip), vehicle: saline with Tween-80
[4] = dose: 100.0 mg/kg/injection, schedule: Q01DX001 (ip), vehicle: saline
[5] = dose: 200.0 mg/kg/injection, schedule: Q01DX001 (ip), vehicle: saline
[6] = dose: 400.0 mg/kg/injection, schedule: Q01DX001 (ip), vehicle: saline
[7] = dose: 50.0 mg/kg/injection, schedule: Q01DX009 (ip), vehicle: saline with Tween-80
[8] = dose: 100.0 mg/kg/injection, schedule: Q01DX009 (ip), vehicle: saline with Tween-80
[9] = dose: 200.0 mg/kg/injection, schedule: Q01DX009 (ip), vehicle: saline with Tween-80
[10] = dose: 60.0 mg/kg/injection, schedule: Q01DX005 (ip), vehicle: saline with Tween-80
[11] = dose: 120.0 mg/kg/injection, schedule: Q01DX005 (ip), vehicle: saline with Tween-80
[12] = dose: 240.0 mg/kg/injection, schedule: Q01DX005 (ip), vehicle: saline with Tween-80
[13] = dose: 50.0 mg/kg/injection, schedule: Q01DX009 (ip), vehicle: Klucel (hydroxypropylcellulose) (HPC)
[14] = dose: 100.0 mg/kg/injection, schedule: Q01DX009 (ip), vehicle: Klucel (hydroxypropylcellulose) (HPC)
[15] = dose: 200.0 mg/kg/injection, schedule: Q01DX009 (ip), vehicle: Klucel (hydroxypropylcellulose) (HPC)
[16] = dose: 3.12 mg/kg/injection, schedule: Q01DX009 (ip), vehicle: saline
[17] = dose: 6.25 mg/kg/injection, schedule: Q01DX009 (ip), vehicle: saline
[18] = dose: 100.0 mg/kg/injection, schedule: Q04DX003 (ip), vehicle: saline
[19] = dose: 50.0 mg/kg/injection, schedule: Q01DX005 (ip), vehicle: Klucel (hydroxypropylcellulose) (HPC)
[20] = dose: 100.0 mg/kg/injection, schedule: Q01DX005 (ip), vehicle: Klucel (hydroxypropylcellulose) (HPC)
[21] = dose: 200.0 mg/kg/injection, schedule: Q01DX005 (ip), vehicle: Klucel (hydroxypropylcellulose) (HPC)
[22] = dose: 25.0 mg/kg/injection, schedule: Q01DX005 (ip), vehicle: Klucel (hydroxypropylcellulose) (HPC)

CSC1=N[N+]2=C(C)c3ccccc3O[B-]2(c2ccccc2)S1 (stereo not given)
T/C [1]: 96 % of control | T/C [2]: 92 % of control | T/C [3]: 87 % of control

CN(CC(O)C(O)C(O)C(O)CN(C)N=O)N=O (stereo not given)
T/C [4]: 115 % of control | T/C [5]: 100 % of control | T/C [6]: 110 % of control

CCOC(=O)C(C(=O)OCC)c1ccccn1
T/C [7]: 98 % of control | T/C [8]: 107 % of control | T/C [9]: 108 % of control

COc1nc(NC2OC(COC(C)=O)C(OC(C)=O)C(OC(C)=O)C2OC(C)=O)c2ccoc2n1 (stereo not given)
T/C [10]: 100 % of control | T/C [11]: 101 % of control | T/C [12]: 98 % of control

COc1ccc(-c2c[s+]cs2)cc1
T/C (dose: 6.25 mg/kg/injection, schedule: Q01DX009 (ip), vehicle: distilled water + Tween-80): 103 % of control | T/C (dose: 12.5 mg/kg/injection, schedule: Q01DX009 (ip), vehicle: distilled water + Tween-80): 112 % of control | T/C (dose: 25.0 mg/kg/injection, schedule: Q01DX009 (ip), vehicle: distilled water + Tween-80): 100 % of control | T/C (dose: 50.0 mg/kg/injection, schedule: Q01DX009 (ip), vehicle: distilled water + Tween-80): 116 % of control | T/C (dose: 100.0 mg/kg/injection, schedule: Q01DX009 (ip), vehicle: distilled water + Tween-80): 109 % of control | T/C (dose: 200.0 mg/kg/injection, schedule: Q01DX009 (ip), vehicle: distilled water + Tween-80): 93 % of control

CCOC(=O)Cc1csc(=S)n1Cc1ccccc1
T/C [1]: 103 % of control | T/C [2]: 108 % of control | T/C [3]: 95 % of control

O=C1c2ccccc2-c2n[nH]c3cccc1c23
T/C [13]: 101 % of control | T/C [14]: 102 % of control | T/C [15]: 96 % of control | T/C (dose: 400.0 mg/kg/injection, schedule: Q01DX009 (ip), vehicle: Klucel (hydroxypropylcellulose) (HPC)): 95 % of control

c1ccc(CSc2ncnc3n[nH]nc23)cc1
T/C [16]: 100 % of control | T/C [17]: 106 % of control | T/C (dose: 12.5 mg/kg/injection, schedule: Q01DX009 (ip), vehicle: saline): 104 % of control | T/C (dose: 25.0 mg/kg/injection, schedule: Q01DX009 (ip), vehicle: saline): 100 % of control

O=C(CN1CCCCC1)Nc1ccc(I)cc1
T/C [7]: 104 % of control | T/C [8]: 107 % of control | T/C [9]: 114 % of control

Cc1nnc(NC(=O)c2ccc(Cl)c(Cl)c2)s1
T/C [13]: 100 % of control | T/C [14]: 94 % of control | T/C [15]: 89 % of control

O=C(Nc1ccc(C2=NCCN2)cc1)Nc1cccc(NC(=O)Nc2cccc(C3=NCCN3)c2)c1
T/C (dose: 0.75 mg/kg/injection, schedule: Q04DX003 (ip), vehicle: saline with Tween-80): 104 % of control | T/C (dose: 1.5 mg/kg/injection, schedule: Q04DX003 (ip), vehicle: saline with Tween-80): 118 % of control | T/C (dose: 8.0 mg/kg/injection, schedule: Q01DX009 (ip), vehicle: saline with Tween-80): 163 % of control | T/C (dose: 12.0 mg/kg/injection, schedule: Q01DX009 (ip), vehicle: saline with Tween-80): 254 % of control | T/C (dose: 12.5 mg/kg/injection, schedule: Q04DX003 (ip), vehicle: saline with Tween-80): 150 % of control | T/C (dose: 18.0 mg/kg/injection, schedule: Q01DX009 (ip), vehicle: saline with Tween-80): 272 % of control | T/C [18]: 104 % of control

CC1=CC2(C)C3C(=O)NC(=O)C3C1C1(C)C3C(=O)NC(=O)C3C21 (stereo not given)
T/C (dose: 25.0 mg/kg/injection, schedule: Q01DX009 (ip), vehicle: Klucel (hydroxypropylcellulose) (HPC)): 103 % of control | T/C [13]: 108 % of control | T/C [14]: 109 % of control | T/C [15]: 97 % of control

C1=C(c2ccccc2)C(=Nc2ccccc2)SC1=Nc1ccccc1
T/C (dose: 1.87 mg/kg/injection, schedule: Q01DX005 (ip), vehicle: saline with Tween-80): 113 % of control | T/C (dose: 7.5 mg/kg/injection, schedule: Q01DX005 (ip), vehicle: saline with Tween-80): 107 % of control | T/C (dose: 30.0 mg/kg/injection, schedule: Q01DX005 (ip), vehicle: saline with Tween-80): 100 % of control | T/C [10]: 120 % of control | T/C [11]: 122 % of control | T/C [12]: 120 % of control

CC[CH2][Sn]([CH2]CC)([O]C(C)=O)[c]1ccccc1
T/C (dose: 1.56 mg/kg/injection, schedule: Q01DX009 (ip), vehicle: saline): 90 % of control | T/C [16]: 86 % of control | T/C [17]: 87 % of control | T/C (dose: 50.0 mg/kg/injection, schedule: Q01DX009 (ip), vehicle: saline): 113 % of control

CN1C(=O)C(=O)N(Cc2ccc(CN3C(=O)C(=O)N(C)C3=O)cc2)C1=O
T/C [13]: 101 % of control | T/C [14]: 103 % of control | T/C [15]: 100 % of control

O=C1Nc2ccc(Br)cc2/C1=N/n1c(-c2ccccc2)nc2ccccc2c1=O
T/C [19]: 86 % of control | T/C [20]: 87 % of control | T/C [21]: 100 % of control

NC(Cc1ccc(O)cc1)C(=O)N/N=C/c1ccccc1Cl (stereo not given)
T/C [19]: 100 % of control | T/C [20]: 106 % of control

CCN(CC)CCOC12CC3CC(CC(C3)C1)C2
T/C (dose: 12.5 mg/kg/injection, schedule: Q01DX005 (ip), vehicle: Klucel (hydroxypropylcellulose) (HPC)): 104 % of control | T/C [22]: 101 % of control | T/C [19]: 100 % of control and 104 % of control

CN(C)CCCNc1nnc(NCCCN(C)C)c2cc3ccccc3cc12
T/C (dose: 7.5 mg/kg/injection, schedule: Q01DX005 (ip), vehicle: saline): 98 % of control | T/C (dose: 15.0 mg/kg/injection, schedule: Q01DX005 (ip), vehicle: saline): 94 % of control | T/C (dose: 30.0 mg/kg/injection, schedule: Q01DX005 (ip), vehicle: saline): 110 % of control

COC1=C(OC)C(=O)C2=C(OCCCO2)C1=O
T/C (dose: 60.0 mg/kg/injection, schedule: Q01DX001 (ip), vehicle: saline with Tween-80): 105 % of control | T/C (dose: 200.0 mg/kg/injection, schedule: Q01DX001 (ip), vehicle: saline with Tween-80): 105 % of control | T/C (dose: 400.0 mg/kg/injection, schedule: Q01DX001 (ip), vehicle: saline with Tween-80): 101 % of control

CC(=O)OCC1OC(n2cnc3c(Cl)nc(N)nc32)C(OC(C)=O)C1OC(C)=O (stereo not given)
T/C [22]: 101 % of control | T/C [19]: 101 % of control | T/C [20]: 108 % of control | T/C [21]: 105 % of control

O=C(O)c1nc2ccccc2c(=O)[nH]1
T/C (dose: 25.0 mg/kg/injection, schedule: Q01DX009 (ip), vehicle: saline with Tween-80): 95 % of control | T/C [7]: 96 % of control | T/C [8]: 94 % of control | T/C [9]: 93 % of control

C1CC[N-]CC1.C1CC[N-]CC1.[Co].[N-]=C=S.[N-]=C=S
T/C (dose: 100.0 mg/kg/injection, schedule: Q01DX001 (ip), vehicle: saline with Tween-80): 100 % of control

CC(C)=C(C#C[Si](C)(C)C)OS(=O)(=O)C(F)(F)F
T/C [1]: 100 % of control | T/C [2]: 101 % of control | T/C [3]: 101 % of control

O=C(C1=CCCCC1)c1ccc(-c2ccccc2)cc1
T/C [8]: 100 % of control | T/C [9]: 100 % of control | T/C (dose: 400.0 mg/kg/injection, schedule: Q01DX009 (ip), vehicle: saline with Tween-80): 100 % of control

O=C1c2ccccc2C(=O)N1C/C=C\c1ccccc1
T/C [4]: 102 % of control | T/C [5]: 102 % of control | T/C [6]: 107 % of control

CC1CC(C)NC(N=S(=O)(O)c2ccc(N)cc2)[N-]1.[Ag+] (stereo not given)
T/C [13]: 106 % of control | T/C [14]: 100 % of control | T/C [15]: 94 % of control

c1ccc(CNNc2nn[nH]n2)cc1
T/C (dose: 100.0 mg/kg/injection, schedule: Q01DX001 (ip), vehicle: Klucel (hydroxypropylcellulose) (HPC)): 96 % of control | T/C (dose: 200.0 mg/kg/injection, schedule: Q01DX001 (ip), vehicle: Klucel (hydroxypropylcellulose) (HPC)): 95 % of control | T/C (dose: 400.0 mg/kg/injection, schedule: Q01DX001 (ip), vehicle: Klucel (hydroxypropylcellulose) (HPC)): 96 % of control

CNC(=S)N/N=C(\C)C(C)(C)C
T/C (dose: 25.0 mg/kg/injection, schedule: Q04DX003 (ip), vehicle: saline): 101 % of control | T/C (dose: 50.0 mg/kg/injection, schedule: Q04DX003 (ip), vehicle: saline): 101 % of control | T/C [18]: 99 % of control and 104 % of control

Reference: PubChem BioAssay AID330 (DTP/NCI, 2004)
